This is an account of results in article PMC10920384 (Heliyon, 2024).

Experiment [1] concerns the target dipeptidyl peptidase-IV (DPP-IV) from porcine kidney (Sus scrofa, UniProt P22411). As to the kind of experiment: Dipeptidyl peptidase-IV. In kind it is biochemical. The note with it: for inhibition at 50 µg/mL: read-out: % Inhibition at 50 μg/mL (DPP-IV).
Experiment [2] has as its system α-glucosidase from Saccharomyces cerevisiae. Nature of the experiment: α-Glucosidase inhibitory assay. In kind it is biochemical. The note with it: mean ± SD, N = 3.

Each structure is given as a SMILES string. Like-named read-outs stand apart in the source and are kept apart here. Marks after values point to notes of the source that are not given here.

dipeptidyl peptidase-IV (DPP-IV) from porcine kidney, sequence (P22411 whole entry): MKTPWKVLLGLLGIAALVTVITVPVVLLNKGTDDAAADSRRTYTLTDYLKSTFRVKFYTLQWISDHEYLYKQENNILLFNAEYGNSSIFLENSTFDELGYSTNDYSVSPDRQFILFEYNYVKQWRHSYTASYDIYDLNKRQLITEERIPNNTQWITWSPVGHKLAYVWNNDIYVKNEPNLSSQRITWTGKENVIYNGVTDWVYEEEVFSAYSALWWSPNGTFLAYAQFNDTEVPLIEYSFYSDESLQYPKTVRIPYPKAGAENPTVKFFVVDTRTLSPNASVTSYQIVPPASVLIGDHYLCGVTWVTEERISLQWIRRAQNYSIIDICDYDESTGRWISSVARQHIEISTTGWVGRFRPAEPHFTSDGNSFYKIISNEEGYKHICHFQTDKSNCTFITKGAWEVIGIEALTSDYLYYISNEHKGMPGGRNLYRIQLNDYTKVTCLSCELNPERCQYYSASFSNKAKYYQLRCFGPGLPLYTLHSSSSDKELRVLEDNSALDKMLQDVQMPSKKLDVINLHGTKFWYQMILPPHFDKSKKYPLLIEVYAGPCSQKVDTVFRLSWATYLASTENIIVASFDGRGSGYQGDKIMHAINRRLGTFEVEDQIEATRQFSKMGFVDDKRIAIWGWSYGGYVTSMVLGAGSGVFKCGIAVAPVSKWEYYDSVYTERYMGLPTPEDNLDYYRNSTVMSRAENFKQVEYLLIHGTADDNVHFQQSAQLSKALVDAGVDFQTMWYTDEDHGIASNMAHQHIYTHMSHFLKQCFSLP

In general, IC50 refers to the midpoint of a concentration-inhibition curve. The term % Inhibition denotes how much of the control response was suppressed. Read a high % Inhibition as a response far below the control. As to `O=c1cc(-c2ccccc2)oc2cc(O)cc(O)c12` [Compound 5, chrysin], in experiment [1], the IC50 was more than 197 µM and the inhibition at 50 µg/mL came to 41.2 ± 1.03%. Moreover, in experiment [2], the “% Inhibition at 10 μg/mL (α-glucosidase)” value is on record as 27.31 ± 1.04% and the “IC50 (α-glucosidase inhibition)” value is more than 10 µg/mL.
As for `COc1cc(OC)c2c(c1O)OC(c1ccccc1)CC2=O` (stereo not shown) [Compound 7, 8-hydroxy-5,7-dimethoxyflavanone], in experiment [1], the IC50 is more than 166 µM and the inhibition at 50 µg/mL is 27.8 ± 2.96%. Besides, in experiment [2], the “% Inhibition at 10 μg/mL (α-glucosidase)” value is given as 34.57 ± 1.43% and the “IC50 (α-glucosidase inhibition)” value is more than 10 µg/mL.
Take `CC[C@H](C)[C@H](N)C(=O)N1CCC[C@H]1C(=O)N[C@H](C(=O)O)[C@@H](C)CC` [Diprotin A, diprotin A, reference compound]: in experiment [1], the inhibition at 50 µg/mL is 77.6 ± 1.18%.
Take `O=C1C[C@@H](c2ccccc2)Oc2cc(O)cc(O)c21` [Compound 8, pinocembrin]: in experiment [1], the IC50 was more than 195 µM and the inhibition at 50 µg/mL is 30.4 ± 1.9%. Also, in experiment [2], the “% Inhibition at 10 μg/mL (α-glucosidase)” value is recorded as 37.30 ± 1.03% and the “IC50 (α-glucosidase inhibition)” value was more than 10 µg/mL.
Consider `COc1cc2c(c(O)c1OC)C(=O)C[C@@H](c1ccccc1)O2` [Compound 10, onysilin], for which, in experiment [1] (mean ± SD, N = 3), the “% Inhibition at 50 μg/mL (DPP-IV)” value amounted to 24.54 ± 2.38% and the “IC50 (DPP-IV inhibition)” value is more than 50 µg/mL. For the same molecule, in experiment [2], the “% Inhibition at 10 μg/mL (α-glucosidase)” value came to 28.13 ± 1.46% and the “IC50 (α-glucosidase inhibition)” value is more than 10 µg/mL.
As to `CC(C)=CCCC(C)=CCCC(C)=CCc1c[nH]c2ccccc12` [Compound 9, 3-Farnesyl indole], in experiment [1], the IC50 is more than 156 µM and the inhibition at 50 µg/mL was 27.1 ± 0.73%. Also, in experiment [2], the “% Inhibition at 10 μg/mL (α-glucosidase)” value is recorded as 18.40 ± 1.39% and the “IC50 (α-glucosidase inhibition)” value was more than 10 µg/mL.
With `COc1cc(OC)c(C(=O)/C=C/c2ccccc2)c(O)c1O` [Compound 4, 2′,3′-dihydroxy-4′,6′-dimethoxychalcone], in experiment [1] (mean ± SD, N = 3), the “% Inhibition at 50 μg/mL (DPP-IV)” value is listed as 97.37 ± 1.01 ^a %. Besides, in experiment [1] (read-out: IC50 (DPP-IV inhibition), mean ± SD, N = 3), the IC50 was 28.7 µM. For the same molecule, in experiment [2], the “% Inhibition at 10 μg/mL (α-glucosidase)” value is on record as 38.04 ± 1.10% and the “IC50 (α-glucosidase inhibition)” value was more than 10 µg/mL.
